Like-named read-outs stand apart in the source and are kept apart here.
How the values were obtained:
cathepsin B [1] = molecular target: T1, cathepsin B (Rattus norvegicus, UniProt P00787); assay: Cathepsin B inhibitory action (lysosome fraction, Z-Arg-Arg-MCA); type: biochemical, rat (Wistar); conditions: pH 6.0, 30° C.; read-out: Cathepsin B Inhibition (IC50)
T1 construct: Preparation of Rat Liver Lysosome Fraction; from tissue; host or cells: rat liver lysosome fraction (male Wistar rat)
Experimental: Male rat of Wistar strain was killed by exsangulnation and a ice-chilled physiological saline was introduced into portal vein for circulation. Then, its liver was taken out. Thereafter, the following procedures were performed at 4° C.
The liver was minced by scissors. Five grams of minced liver were homogenized in a Potter type Teflon Homogenizer after addition of 0.25M aqueous sucrose solution in a volume as much as nine times. The homogenized mixture was centrifuged for 10 minutes at 800 G. The resulting supernatant was further centrifuged at 12,000 G for 20 minutes. The precipitate was homogenized in 25 mL of 0.25M aqueous sucrose solution, and then centrifuged for 20 minutes at 12,000 G. The resulting precipitate was further homogenized after 100 mL of 0.25M aqueous sucrose solution. Thus, a lysosome fraction was obtained.
To 0.25 mL of a solution (pH: 6.0) containing 352 mM KH2 PO4, 48 mM Na2 HPO4, 5.32 mM EDTA.2 Na and 10 mM L-cysteine were added 0.1 mL of the lysosome fraction, 5 μL of the test compound solution, and 0.545 mL of distilled water. The mixture was preincubated at 30° C. for 15 minutes. Thereafter, the reaction was started by the addition of 0.1 mL of a solution of 50 μM carbobenzoxy-L-arginine-L-arginine-4-methylcoumaryl-7-amide (Z-Arg-Arg-MCA, substrate). The reaction was performed at 30° C. for 20 minutes, and then terminated by addition of 1 mL of an aqueous solution (pH: 4.3) containing 100 mM sodium monochloroacetate, 30 mM sodium acetate and 70 mM acetic acid. The finally obtained solution was subjected to measurement of fluorescence strength (excitation wavelength: 380 nm, emission wavelength: 460 nm).

[2] = test system: ICR mouse calvaria (bone resorption); assay: Bone resorption inhibitory activity (PTH-stimulated calcium release from mouse calvaria); type: cell-based; conditions: read-out: Bone Resorption Inhibition, inhibition ratio (%)
Experimental: From ICR mouse (age: 6 to 7 days), calvaria was taken under aseptic conditions. The calvaria was divided along the median line into two parts after its connective tissue was removed. In a culture medium (modified BGjb medium, containing 5% inactivated bovine fetal serum) in an amount of 1 mL per a pair of bones, a pre-culture was performed for 24 hours under the conditions of 5% CO2 and 37° C. After the pre-culture was complete, each one of bone was placed in 0.5 mL of the same culture medium containing the test compound of different concentration, and cultured for 72 hours in the presence of 3×10^-7 M parathyroid hormone (PTH). For the control, culture was performed in the same manner except for using neither test compound nor PTH.
After the culture was complete, the amount of calcium released in the supernatant of the culture medium in the 72 hour culture as well as the amount of calcium contained in the bone (dissolved in 1 mL of 6N hydrochloric acid) were determined by ortho-cresol phthalein complexon (OCPC) method.
The calcium release ratio (%) was calculated according to the following equation: [formula]
The inhibition ratio (%) of bone resorption by the test compound was calculated according to the following equation: [formula]

cathepsin L = cathepsin L (Rattus norvegicus, UniProt P07154); assay: Cathepsin L inhibitory action (rat liver lysosome fraction, Z-Phe-Arg-MCA); type: biochemical, rat (Wistar); conditions: pH 5.5, 30° C., in the presence of 10^-7 M CA-074; read-out: Cathepsin L Inhibition IC50
cathepsin B [3] = molecular target: T1, cathepsin B; conditions: 10^-7 M CA-074, pH 5.5, Z-Phe-Arg-MCA; cited from earlier work
[4] = Concentration of Test Comp. 10^-4 M, 72 hours, 3×10^-7 M PTH
[5] = Concentration of Test Comp. 10^-5 M, 72 hours, 3×10^-7 M PTH
[6] = Concentration of Test Comp. 10^-6 M, 72 hours, 3×10^-7 M PTH

T1 sequence (P00787 80-339): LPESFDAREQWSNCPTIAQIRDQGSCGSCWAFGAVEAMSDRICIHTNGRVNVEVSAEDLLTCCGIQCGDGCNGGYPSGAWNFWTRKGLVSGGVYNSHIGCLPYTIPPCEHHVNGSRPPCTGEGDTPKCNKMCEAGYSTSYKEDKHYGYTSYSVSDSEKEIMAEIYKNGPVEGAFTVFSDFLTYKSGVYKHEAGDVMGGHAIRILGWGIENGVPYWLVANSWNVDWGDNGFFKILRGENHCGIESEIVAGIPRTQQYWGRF
cathepsin L, sequence (P07154 114-334): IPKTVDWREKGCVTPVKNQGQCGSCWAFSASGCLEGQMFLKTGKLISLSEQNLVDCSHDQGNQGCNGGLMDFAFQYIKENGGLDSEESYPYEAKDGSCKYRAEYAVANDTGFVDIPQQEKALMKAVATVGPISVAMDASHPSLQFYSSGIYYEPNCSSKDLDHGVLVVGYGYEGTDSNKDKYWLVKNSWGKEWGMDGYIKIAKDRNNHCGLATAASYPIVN

Structure (SMILES): O=C(O)[C@H]1O[C@@H]1C(=O)NC(Cc1ccccc1)Cc1ccccc1
- IC50 (cathepsin B [1]): 200 nM

Structure (SMILES): O=C(O)[C@H]1O[C@@H]1C(=O)NC(c1ccccc1)c1ccccc1
- inhibition at 1 µM ([2]; 72 h): 90%
- inhibition at 10 µM ([2]; 72 h): 82%
- inhibition at 100 µM ([2]; 72 h): 95%
- IC50 (cathepsin L): 240 nM
- IC50 (cathepsin B [1]): 230 nM

Structure (SMILES): CC(C)CCC(CCC(C)C)NC(=O)[C@H]1O[C@@H]1C(=O)O
- inhibition at 1 µM ([2]; 72 h): 63%
- inhibition at 10 µM ([2]; 72 h): 87%
- inhibition at 100 µM ([2]; 72 h): 82%
- IC50 (cathepsin L): 19 nM
- IC50 (cathepsin B [1]): 310 nM

Structure (SMILES): CC(C)CCNC(=O)[C@H]1O[C@@H]1C(=O)O (relative stereo) [Comparison X, reference compound]
- inhibition at 100 µM [2, 4]: 66%
- inhibition at 10 µM [2, 5]: 40%
- inhibition at 1 µM [2, 6]: 25%
- IC50 (cathepsin L): 78 nM

Structure (SMILES): O=C(O)[C@H]1O[C@@H]1C(=O)NCc1ccccc1 (relative stereo) [Comparison Y, reference compound]
- inhibition at 100 µM [2, 4]: 44%
- inhibition at 10 µM [2, 5]: 38%
- inhibition at 1 µM [2, 6]: 21%
- IC50 (cathepsin L): 350 nM

Structure (SMILES): CCCNC(=O)[C@H]1O[C@@H]1C(=O)N[C@H](C(=O)N1CCC[C@H]1C(=O)O)[C@@H](C)CC [CA-074]
- cathepsin B activity inhibition (cathepsin B [3]): completely inhibited

From patent publication US5843992A, “Epoxysuccinic acid derivatives” (Nippon Chemiphar Co., Ltd., priority 1995, dated 1998)
